Earlier results in US4076804A, “Erythromycin therapy” (Abbott Laboratories, priority 1976, dated 1978).

Settings: general statement, no test described

For `CCOC(=O)CCC(=O)O[C@H]1[C@H](O[C@@H]2[C@@H](C)[C@H](O[C@H]3C[C@@](C)(OC)[C@@H](O)[C@H](C)O3)[C@@H](C)C(=O)O[C@H](CC)[C@@](C)(O)[C@H](O)[C@@H](C)C(=O)[C@H](C)C[C@@]2(C)O)O[C@H](C)C[C@@H]1N(C)C` [EES, erythromycin ethyl succinate], the toxicity is given as “very low toxicity”.
